{"source": "patent US11612600B2", "about": "“Pharmaceutical composition comprising macitentan for the treatment of chronic thromboembolic pulmonary hypertension” (ACTELION PHARMACEUTICALS LTD, priority 2019, dated 2023)", "key": {"[1]": {"details": "continuous IV infusion, patients with PVR greater than 1200 dynes·s·cm^−5 before PEA surgery; cited from earlier work"}, "[2]": {"experiment": "Predicted plasma concentrations in PAH patients at 75 mg per day", "assay_type": "in vivo, human", "details": "macitentan 75 mg per day; for predicted peak plasma concentration: PAH patients, based on PK Sub-study, assuming dose linearity; for expected free plasma concentration: taking into account protein binding", "experimental": "Predicted peak plasma concentrations of macitentan and ACT-132577 in PAH patients at 75 mg per day dose are expected to be around 5 μM and 14 μM, respectively, based on the PK Sub-study and assuming dose linearity. […] It is not likely that these unbound concentrations of macitentan and ACT-132577 result in any inhibition of BCRP in the liver or kidney or induction of CYP3A4 enzyme in the liver."}, "human PXR": {"target": "T1, human PXR (Homo sapiens, UniProt O75469)", "T1 sequence (O75469 1-434)": "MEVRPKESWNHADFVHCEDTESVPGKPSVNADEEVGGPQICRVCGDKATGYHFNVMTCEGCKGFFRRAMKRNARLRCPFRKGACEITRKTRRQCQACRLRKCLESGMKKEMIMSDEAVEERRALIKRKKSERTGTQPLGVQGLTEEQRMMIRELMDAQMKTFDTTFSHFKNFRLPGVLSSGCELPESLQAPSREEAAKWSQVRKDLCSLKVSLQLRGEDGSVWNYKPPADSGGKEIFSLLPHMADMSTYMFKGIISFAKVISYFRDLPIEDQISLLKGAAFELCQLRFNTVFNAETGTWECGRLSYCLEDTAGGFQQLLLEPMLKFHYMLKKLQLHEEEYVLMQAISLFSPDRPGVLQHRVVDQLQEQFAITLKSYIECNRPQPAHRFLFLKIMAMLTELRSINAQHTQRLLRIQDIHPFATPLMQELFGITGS", "experiment": "Activation of human PXR", "assay_type": "cell-based"}, "ET receptors": {"test_system": "ET receptors", "details": "cited from earlier work"}, "[3]": {"experiment": "Drug-drug interaction in general"}, "CYP3A4": {"test_system": "CYP3A4", "experiment": "CYP3A4 induction in human hepatocytes", "assay_type": "in vitro ADME"}, "[4]": {"details": "cited from earlier work"}, "plasma ET-1": {"test_system": "plasma ET-1", "details": "healthy human subjects; 1, 3, 10, 30 mg; cited from earlier work"}, "BCRP transporters": {"target": "T2, BCRP transporters (Homo sapiens, UniProt Q9UNQ0)", "T2 construct": "BCRP is an efflux pump located in the gut, liver canalicular membrane, and kidney; from tissue; host or cells: in vivo: gut, liver canalicular membrane, kidney", "T2 sequence (Q9UNQ0 1-655)": "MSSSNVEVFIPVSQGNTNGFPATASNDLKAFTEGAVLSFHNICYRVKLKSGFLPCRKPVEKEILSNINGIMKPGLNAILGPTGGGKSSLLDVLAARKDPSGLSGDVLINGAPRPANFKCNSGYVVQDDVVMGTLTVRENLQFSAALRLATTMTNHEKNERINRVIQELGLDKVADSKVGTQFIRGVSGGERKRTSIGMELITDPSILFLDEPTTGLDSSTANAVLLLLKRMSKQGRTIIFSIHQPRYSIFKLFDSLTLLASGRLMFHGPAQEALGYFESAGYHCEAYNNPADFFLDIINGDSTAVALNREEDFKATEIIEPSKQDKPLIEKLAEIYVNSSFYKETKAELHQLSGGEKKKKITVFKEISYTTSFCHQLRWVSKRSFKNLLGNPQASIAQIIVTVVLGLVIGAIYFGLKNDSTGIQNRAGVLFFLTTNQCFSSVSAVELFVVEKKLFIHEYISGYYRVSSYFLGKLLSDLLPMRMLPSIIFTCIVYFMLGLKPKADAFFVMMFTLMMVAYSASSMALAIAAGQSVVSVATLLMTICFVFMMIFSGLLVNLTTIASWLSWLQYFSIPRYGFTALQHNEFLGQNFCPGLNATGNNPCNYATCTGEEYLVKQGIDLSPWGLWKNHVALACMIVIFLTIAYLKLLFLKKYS", "experiment": "Effect of macitentan on rosuvastatin pharmacokinetics", "assay_type": "in vivo", "details": "macitentan 10 mg per day o.d.", "excerpt": "BCRP is an efflux pump located in the gut, liver canalicular membrane, and kidney, and is exposed to intracellular drug concentrations in the liver and the kidney."}, "[5]": {"experiment": "Effect of macitentan on decrease in hemoglobin concentration, pooled Phase I studies, Emax fit", "assay_type": "in vivo, human", "details": "healthy volunteers", "excerpt": "Hemoglobin measurements were pooled from 3 Phase I clinical studies in healthy volunteers: • Study AC-055-102: Investigation of the PK, PD, safety and tolerability of macitentan in male subjects (the study protocol is described in the following publication: Sidharta et al., Safety, tolerability, pharmacokinetics, and pharmacodynamics of macitentan, an endothelin receptor antagonist, in an ascending multiple-dose study in healthy subjects. J. Clin. Pharmacol. (2013), 53(11), 1131-1138) • Study AC-055-116: Investigation of the PK, PD, safety and tolerability of macitentan in male Japanese subjects (the study protocol is described in the following publication: Yokoyama et al., Tolerability, Safety, Pharmacokinetics, and Pharmacodynamics of Macitentan, a New Endothelin Receptor Antagonist, in Healthy Japanese Male Subjects. Rinsho yakuri/Japanese Journal of Clinical Pharmacology and Therapeutics (2016), 47, 143-150) • Study AC-055-117: Investigation of the PK, PD, safety and tolerability of macitentan in male Korean subjects (the study protocol is described in the following publication: Ahn et al., Pharmacokinetic-pharmacodynamic relationships of macitentan, a new endothelin receptor antagonist, after multiple dosing in healthy Korean subjects, Am. […]\nHemoglobin concentrations measured in the morning of Day 11 of macitentan treatment and at baseline on Day −1 were used in the analysis. […]"}, "[6]": {"details": "rats, cited from earlier work"}}, "data": [{"smiles": "CCCCC[C@H](O)/C=C/[C@@H]1[C@H]2C/C(=C/CCCC(=O)O)O[C@H]2C[C@H]1O", "note": "[epoprostenol]", "values": [{"measurement": "effect on preoperative cardiac output and PVR", "setting": "[1]", "value": "may significantly increase preoperative cardiac output and reduces PVR"}]}, {"smiles": "NS(=O)(=O)Nc1ncnc(OCCOc2ncc(Br)cn2)c1-c1ccc(Br)cc1", "note": "[ACT-132577]", "values": [{"measurement": "predicted peak plasma concentration", "setting": "[2]", "value": "~14", "unit": "µM"}, {"measurement": "expected free plasma concentration", "setting": "[2]", "value": 0.07, "unit": "µM"}, {"measurement": "EC50", "setting": "human PXR", "value": "7.2 to 8.7", "unit": "µM"}, {"measurement": "affinity for the ET receptors relative to parent compound", "setting": "ET receptors", "value": "lower affinity"}, {"measurement": "drug-drug interaction", "setting": "[3]", "value": "No Drug-Drug Interaction has been observed"}, {"measurement": "CYP3A4 mRNA and enzyme activity", "setting": "CYP3A4", "value": "concentration-dependent increases"}, {"measurement": "time to peak plasma concentration", "setting": "[4]; after the first dose of macitentan", "value": "about 30 hours"}, {"measurement": "half-life", "setting": "[4]; in humans", "value": "approximately 48 hours"}, {"measurement": "plasma concentrations relative to macitentan", "setting": "[4]; in vivo", "value": "higher plasma concentrations than macitentan"}]}, {"smiles": "CCCNS(=O)(=O)Nc1ncnc(OCCOc2ncc(Br)cn2)c1-c1ccc(Br)cc1", "note": "[macitentan, propylsulfamic acid [5-(4-bromo-phenyl)-6-[2-(5-bromo-pyrimidin-2-yloxy)-ethoxy]-pyrimidin-4-yl]-amide]", "values": [{"measurement": "predicted peak plasma concentration", "setting": "[2]", "value": "around 5 μM"}, {"measurement": "expected free plasma concentration", "setting": "[2]", "value": 0.02, "unit": "µM"}, {"measurement": "plasma ET-1 concentrations at steady-state", "setting": "plasma ET-1", "value": "no further increase beyond the 10 mg oral dose"}, {"measurement": "EC50", "setting": "human PXR", "value": "1.1 to 1.2", "unit": "µM"}, {"measurement": "effect on the pharmacokinetics of 1 mg rosuvastatin", "setting": "BCRP transporters", "value": "has not shown any effect"}, {"measurement": "dose at which the effect on hemoglobin decrease plateaus", "setting": "[5]", "value": 10, "unit": "mg"}, {"measurement": "maximum effect on hemoglobin decrease (Emax)", "setting": "[5]; Day 11 vs baseline Day −1", "value": "around 1.23 g/dL"}, {"measurement": "drug-drug interaction", "setting": "[3]", "value": "No Drug-Drug Interaction has been observed"}, {"measurement": "CYP3A4 mRNA and enzyme activity", "setting": "CYP3A4", "value": "concentration-dependent increases"}, {"measurement": "dose of maximal or near-maximal effect", "setting": "[6]; EMA Assessment Report", "value": 10, "unit": "mg/kg"}, {"measurement": "maximal effective dose", "setting": "[6]", "value": 30, "unit": "mg/kg"}, {"measurement": "absorption into the plasma", "setting": "[4]; in humans", "value": "absorbed slowly"}, {"measurement": "half-life", "setting": "[4]; in humans", "value": "about 16 hours"}, {"measurement": "time to steady state", "setting": "[4]; in humans", "value": "by the third day of administration"}]}]}
